According to US12415832B2, “B-catenin/B-cell Lymphoma 9 protein-protein interaction inhibiting peptidomimetics” (University of South Florida, priority 2019, dated 2025):

What was measured:
β-catenin = molecular target: T1, β-catenin (Homo sapiens, UniProt P35222); assay: FP assay, binding of peptides with β-catenin (Kd); settings: for Kd: fluorescence polarization, 50 nM FITC labeled peptide, 1×PBS; for decrease in binding affinity relative to 2: Ala substitution
T1 sequence (P35222 1-781): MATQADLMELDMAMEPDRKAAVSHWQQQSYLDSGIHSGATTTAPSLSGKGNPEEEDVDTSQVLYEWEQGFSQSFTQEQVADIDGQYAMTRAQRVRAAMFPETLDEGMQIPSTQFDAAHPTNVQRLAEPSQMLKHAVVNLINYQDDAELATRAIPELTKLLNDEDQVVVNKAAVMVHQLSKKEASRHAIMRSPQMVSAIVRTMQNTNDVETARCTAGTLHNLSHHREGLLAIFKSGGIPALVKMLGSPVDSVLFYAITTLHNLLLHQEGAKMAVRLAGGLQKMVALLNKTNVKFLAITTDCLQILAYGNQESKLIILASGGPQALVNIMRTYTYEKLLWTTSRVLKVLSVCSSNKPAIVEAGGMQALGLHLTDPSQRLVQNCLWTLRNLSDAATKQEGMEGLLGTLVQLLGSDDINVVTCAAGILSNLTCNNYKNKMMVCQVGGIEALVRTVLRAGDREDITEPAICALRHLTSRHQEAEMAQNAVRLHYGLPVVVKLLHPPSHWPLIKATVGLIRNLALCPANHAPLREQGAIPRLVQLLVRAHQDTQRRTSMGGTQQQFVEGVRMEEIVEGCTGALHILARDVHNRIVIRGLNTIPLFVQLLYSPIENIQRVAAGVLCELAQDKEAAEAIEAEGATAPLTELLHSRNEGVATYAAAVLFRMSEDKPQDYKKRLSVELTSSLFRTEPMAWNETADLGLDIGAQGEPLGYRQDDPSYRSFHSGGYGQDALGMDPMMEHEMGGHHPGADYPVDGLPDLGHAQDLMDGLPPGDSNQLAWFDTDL

A549 cell = assay type: cell-based; settings: 72 h
[1] = system: Wnt/β-catenin signaling transactivation (TOPFlash); assay: Wnt-responsive TOPFlash luciferase reporter assay in SW480 cells; settings: read-out: TOPFlash luciferase IC50 (estimated), 24 h
SW480 cell = assay type: cell-based; settings: 72 h
Description: Colorectal cancer cell lines SW480 were seeded in 96-well plates at 5×10^3 cells/well, maintained overnight at 37° C., and incubated in the presence of inhibitors at various concentrations. Cell viability was monitored after 72 h using a freshly prepared mixture of one-part phenazine methosulfate (PMS, Sigma) solution (0.92 mg/mL) and 19 parts MTs agent (3-(4,5-dimethylthiazol-2-yl)-5-(3-carboxymethoxyphenyl)-2-(4-sulfophenyl)-2H-tetrazolium, inner salt, Promega) solution (2 mg/mL). Cells were incubated in 10 μL of this solution at 37° C. for 3 h, and A490 was measured. The effect of each compound is expressed as the concentration required to reduce A490 by 50% (IC50) relative to vehicle-treated cells. Experiments were performed in triplicate and repeated for three times.

β-catenin/BCL9 PPI [2] = molecular target: T2, β-catenin/BCL9 PPI (Homo sapiens, UniProt P35222); assay: AlphaScreen competitive inhibition assay of β-catenin/BCL9 PPI; assay type: binding; settings: AlphaScreen, mean ± SD; for IC50: 5 nM biotinylated BCL9, 40 nM His6-tagged FL-β-catenin; for Ki: Ki derived from IC50 by method of Nikolovska-Coleska et al.
T2 construct: 40 nM His6-tagged FL-β-catenin
T2 sequence (P35222 1-781): T1 sequence (P35222 1-781)
Description: For the competitive inhibition assays of β-catenin/BCL9 PPI, the negative control (equivalent to 0% inhibition) refers to 5.0 nM biotinylated BCL9, 40 nM His6-tagged FL-β-catenin, and 10 μg/mL of donor and acceptor beads in a final volume of 25 μL of assay buffer, but no tested inhibitor present. The positive control (equivalent to 100% inhibition) refers to 5.0 nM biotinylated BCL9 and 10 μg/mL of donor and acceptor beads in a final volume of 25 μL of assay buffer. For the β-catenin/BCL9 assay, 5 nM biotinylated BCL9 and 40 nM His6-tagged FL-β-catenin were incubated in assay buffer at 4° C. for 30 min. Different concentrations of the tested inhibitor were added and incubated in 20 μL of assay buffer at 4° C. for another 1 h. All of the above assay plates were covered and gently mixed on an orbital shaker. The donor and acceptor beads were then added to the plates to a final concentration of 10 μg/mL in 25 μL of assay buffer. The mixture was incubated for 1 h at 4° C. before detection. The IC50 value was determined by nonlinear least-squares analysis of GraphPad Prism 5.0. The Ki values were derived from the IC50 values using a method reported by Nikolovska-Coleska et al. The assays were conducted under the conditions reported by Nikolovska-Coleska et al.'s equation for determining the Ki values. All of the experiments were performed in triplicate. The results were expressed as mean±standard deviation.

β-catenin/BCL9 PPI [3] = assay: Co-immunoprecipitation in HCT116 cells; assay type: cell-based; settings: 24 h
Description: β-Catenin signaling hyperactive HCT116 cancer cells at […] were treated with different concentrations of the inhibitor for 24 h. Cells were then lysed in buffer containing 50 mM Tris, pH 7.4, 150 mM NaCl, 1% Nonidet […], 2 mM EDTA, and protease inhibitors. The cell lysates were then preadsorbed to A/G plus agarose (sc-2003, Santa Cruz Biotechnology) at 4° C. for 1 h. Preadsorbed lysates were incubated with a specific primary antibody against […] (610153, BD Biosciences) overnight at 4° C. A/G plus agarose was then added to the lysate mixture and incubated for 3 h. The beads were washed four times with the lysis buffer at 4° C. The bound protein was eluted by boiling in the SDS sample buffer and loaded onto 8% SDS polyacrylamide gel for electrophoretic analysis. Separated proteins were transferred onto nitrocellulose membranes for immunoblot analysis. The antibodies against BCL9 (ab37305, Abcam), β-catenin (610153, BD Biosciences), and […] (sc-55529, Santa Cruz Biotechnology, Inc.) were incubated with the membranes, respectively. IRDye 680LT goat anti mouse IgG (827-11080, LiCOR) and IRDye 800CW goat anti rabbit IgG (926-32211, LiCOR) were used as the secondary antibodies. The images were detected by the Odyssey Infrared Imaging System (LiCOR). Experiments were performed in duplicate.

Kd (β-catenin) [µM]	IC50 (A549 cell) [µM]	IC50 [1] [µM]	IC50 (SW480 cell) [µM]	IC50 (β-catenin/BCL9 PPI [2]) [µM]	Ki (β-catenin/BCL9 PPI [2]) [µM]	decrease in binding affinity relative to 2 (β-catenin)	SMILES	disruption of β-catenin/BCL9 PPI in cells (co-IP) (β-catenin/BCL9 PPI [3])
0.43	39.9 ± 4.75	35.4	12.5 ± 2.86	0.74	0.64	–	CCC(C)[C@@H](CN(CC(=O)N[C@@H](CC(C)C)CN(CC(=O)N[C@@H](CC(C)C)CN(CC(N)=O)S(=O)(=O)Cc1ccccc1)S(=O)(=O)CC(C)C)S(C)(=O)=O)NC(=O)CN(C[C@H](CCCNC(=N)N)NC(=O)CN(C[C@H](CC(C)C)NC(=O)CN(C[C@@H](NC(=O)CN(C[C@H](CC(C)C)NC(=O)CN(C[C@H](CCCNC(=N)N)NC(=O)CN(C[C@H](CCCNC(=N)N)NC(=O)CN(C[C@H](CCC(=O)O)NC(C)=O)S(=O)(=O)CCN)S(C)(=O)=O)S(C)(=O)=O)S(=O)(=O)CCN)C(C)O)S(=O)(=O)CC(C)C)S(=O)(=O)CCN)S(=O)(=O)CC(C)C (stereo partly drawn) [Peptide 2]	–
0.82	43.2 ± 5.6	20.6	16.4 ± 4.4	1.1 ± 0.14	0.98 ± 0.11	about 1.5 fold	CCC(C)[C@@H](CN(CC(=O)N[C@@H](CC(C)C)CN(CC(=O)N[C@@H](CC(C)C)CN(CC(N)=O)S(=O)(=O)Cc1ccccc1)S(=O)(=O)CC(C)C)S(C)(=O)=O)NC(=O)CN(C[C@H](CCCNC(=N)N)NC(=O)CN(C[C@H](CC(C)C)NC(=O)CN(C[C@@H](NC(=O)CN(C[C@H](CC(C)C)NC(=O)CN(C[C@H](CCCNC(=N)N)NC(=O)CN(C[C@H](C)NC(=O)CN(C[C@H](CCC(=O)O)NC(C)=O)S(=O)(=O)CCN)S(C)(=O)=O)S(C)(=O)=O)S(=O)(=O)CCN)C(C)O)S(=O)(=O)CC(C)C)S(=O)(=O)CCN)S(=O)(=O)CC(C)C (stereo partly drawn) [Peptide 4]	disrupted the β-catenin/BCL9 PPI in a dose-dependent manner
0.86	43.7 ± 3.62	26.5	12.8 ± 2.9	1.04 ± 0.21	0.92 ± 0.17	about 1.5 fold	CCC(C)[C@@H](CN(CC(=O)N[C@@H](CC(C)C)CN(CC(=O)N[C@@H](CC(C)C)CN(CC(N)=O)S(=O)(=O)Cc1ccccc1)S(=O)(=O)CC(C)C)S(C)(=O)=O)NC(=O)CN(C[C@H](CCCNC(=N)N)NC(=O)CN(C[C@H](CC(C)C)NC(=O)CN(C[C@@H](NC(=O)CN(C[C@H](CC(C)C)NC(=O)CN(C[C@H](CCCNC(=N)N)NC(=O)CN(C[C@H](CCCNC(=N)N)NC(=O)CN(C[C@H](CCC(=O)O)NC(C)=O)S(C)(=O)=O)S(C)(=O)=O)S(C)(=O)=O)S(=O)(=O)CCN)C(C)O)S(=O)(=O)CC(C)C)S(=O)(=O)CCN)S(=O)(=O)CC(C)C (stereo partly drawn) [Peptide 3]	–
